Experiment [1] deals with T1, Cannabinoid receptor 1 (Homo sapiens, UniProt P21554). As to the kind of experiment: Membranes were purchased from Perkin Elmer.
The target of experiment [2] is T2, Cannabinoid receptor 2 (Homo sapiens, UniProt P34972). As to the kind of experiment: Membranes were prepared as described in FELDER, C. C., et al., Molecular Pharmacology, 1992, pp 838-845, Vol. 42.
Experiment [3] has as its target T1, Cannabinoid receptor 1. As to the kind of experiment: (§1) cAMP Assay: The following mixtures and buffer solutions were prepared: (a) Buffer 1: HBSS (Mediatech Cat#21-023-CV) with 5 mM HEPES (1 mM stock, Gibco BRL Cat#15630-056) and 0.1% BSA (7.5% stock, Invitrogen Cat#15260-037); (b) Buffer 2: 0.5 mM IBMX (200 mM stock in DMSO, Sigma 15879) in Buffer 1; (c) 1 uM cAMP Standard (50 uM stock, Perkin Elmer Cat# AD0262) diluted in Buffer 2 and serially diluted in Buffer 2, 12 doses at 1/2 dilutions resulting in a dose range of 1 uM to 0.5 nM; (d) d2 labelled cAMP (CisBio HTRF Detection Kit Cat #62AM4PEB reconstituted with 6 ml dH2O) diluted 1/20 with lysis buffer (CisBio HTRF Detection Kit Cat #62AM4PEB); (e) anti-cAMP (CisBio HTRF Detection Kit Cat #62AM4PEB reconstituted with 5 ml dH2O) diluted 1/20 with lysis buffer (CisBio HTRF Detection Kit Cat #62AM4PEB); and (f) Forskolin (Sigma Cat# F6886, 10 mM in DMSO) diluted first in DMSO to 1 mM and then to 1.5 uM in Buffer 2. The experiment is classed as functional.

In experiment [4] the target is T2, Cannabinoid receptor 2. Described as §1. The experiment is classed as functional.

SMILES strings stand for the structures.

T2 sequence (P34972 whole entry): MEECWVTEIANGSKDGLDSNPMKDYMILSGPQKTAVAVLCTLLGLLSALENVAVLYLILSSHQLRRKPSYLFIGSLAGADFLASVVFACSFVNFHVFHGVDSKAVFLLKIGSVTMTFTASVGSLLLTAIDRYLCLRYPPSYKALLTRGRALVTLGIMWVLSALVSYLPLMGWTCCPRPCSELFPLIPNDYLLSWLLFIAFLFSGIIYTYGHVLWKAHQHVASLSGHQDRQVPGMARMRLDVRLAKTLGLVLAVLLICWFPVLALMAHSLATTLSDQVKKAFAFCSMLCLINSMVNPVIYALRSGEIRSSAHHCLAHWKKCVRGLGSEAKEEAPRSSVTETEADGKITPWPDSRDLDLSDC
T1 sequence (P21554 whole entry): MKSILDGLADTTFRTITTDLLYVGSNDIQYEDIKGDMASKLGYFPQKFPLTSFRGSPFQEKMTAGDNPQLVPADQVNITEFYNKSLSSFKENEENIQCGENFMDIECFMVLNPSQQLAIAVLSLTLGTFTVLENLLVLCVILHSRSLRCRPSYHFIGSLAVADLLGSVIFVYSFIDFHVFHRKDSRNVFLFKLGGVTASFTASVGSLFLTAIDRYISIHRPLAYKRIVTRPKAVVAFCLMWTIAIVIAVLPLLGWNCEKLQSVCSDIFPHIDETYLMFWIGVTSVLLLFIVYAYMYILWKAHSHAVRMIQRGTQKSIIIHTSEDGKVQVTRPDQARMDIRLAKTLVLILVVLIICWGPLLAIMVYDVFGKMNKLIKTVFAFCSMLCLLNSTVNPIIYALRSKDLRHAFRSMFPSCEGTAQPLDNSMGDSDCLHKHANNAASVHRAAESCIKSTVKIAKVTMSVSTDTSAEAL

Regarding `OC(c1ccc(Cl)cc1)(c1ccsc1)c1ccc2nccc(/C=C/c3ccccc3)c2c1` (centres undefined), the EC50 in experiment [1] stood at 223 nM.
On the same count and under the same terms, with `O=c1cc(/C=C/c2ccccc2)c2cc(C(c3ccc(Cl)cc3)c3ccc(Cl)cc3)ccc2[nH]1` the figure was 35.8 nM.
`Cn1c(=O)cc(CCc2cccc(Cl)c2)c2cc(C(c3ccc(Cl)cc3)c3nccs3)ccc21` (centres undefined) yielded an EC50 in experiment [1] greater than 2500 nM.
`O=c1cc(NC2CCN(S(=O)(=O)C(F)(F)F)CC2)c2cc(C(c3ccc(Cl)cc3)c3nccs3)ccc2[nH]1` (centres undefined) yielded an EC50 in experiment [1] of 4.4 nM.
As to `Clc1ccc(C(c2ccc3nccc(/C=C/c4ccccc4)c3c2)c2nccs2)cc1` (centres undefined), the EC50 was 55.1 nM in experiment [1] and greater than 5000 nM in experiment [2].
The compound `O=c1cc(CCc2cccc(Cl)c2)c2cc(C(O)(c3ccc(Cl)cc3)c3nccs3)ccc2[nH]1` (centres undefined) had an EC50 in experiment [1] greater than 2500 nM.
For the compound `O=c1cc(/C=C/c2ccc(C(F)(F)F)cc2)c2cc(C(c3ccc(Cl)cc3)c3cccs3)ccc2[nH]1` (centres undefined), the EC50 in experiment [1] is 15.1 nM; in experiment [2], greater than 5000 nM.
With `O=c1cc(NC2CCN(S(=O)(=O)C(F)(F)F)CC2)c2cc(C(c3ccc(Cl)cc3)c3ccc(Cl)cc3)ccc2[nH]1`, the values for the EC50 in experiment [1] and in experiment [2] were 1.2 nM and 53 nM, respectively.
For the compound `OC(c1ccc(Cl)cc1)(c1ccc2nccc(/C=C/c3ccccc3)c2c1)c1cccs1` (centres undefined), the EC50 in experiment [1] worked out at 101 nM.
`Clc1ccc(C(c2ccc3nccc(/C=C/c4ccccc4)c3c2)c2cccs2)cc1` (centres undefined): the EC50 in experiment [1] came out at 97.3 nM.
As for `N=C(N)N1CCC(Nc2cc(=O)[nH]c3ccc(C(c4ccc(Cl)cc4)c4ccc(Cl)cc4)cc23)CC1`, the EC50 in experiment [3] and in experiment [4] was greater than 10000 nM in each case.
Turning to `O=c1cc(CCc2cccc(Cl)c2)c2cc(C(c3ccc(Cl)cc3)c3nccs3)ccc2[nH]1` (centres undefined), in experiment [1], the EC50 amounted to 332 nM.
Consider `O=c1cc(/C=C/c2cccc(F)c2)c2cc(C(c3ccc(Cl)cc3)c3ccsc3)ccc2[nH]1` (centres undefined), for which the figures for the half-maximal effective concentration (EC50) in experiment [1] and in experiment [2] were 22 nM and greater than 5000 nM, respectively.
`CCOC(=O)CCCOc1ccc(Nc2cc(=O)[nH]c3ccc(C(c4ccc(Cl)cc4)c4ccc(Cl)cc4)cc23)cc1`: the results for the EC50 in experiment [3] and in experiment [4] were 68 nM and greater than 10000 nM, respectively.
In the case of `O=c1cc(/C=C/c2ccc(C(F)(F)F)cc2)c2cc(C(c3ccc(Cl)cc3)c3nccs3)ccc2[nH]1` (centres undefined), the values for the EC50 in experiment [3] and in experiment [4] were 397 nM and greater than 10000 nM, respectively.
As for `CC(C)(C)OC(=O)CN1CCC(Nc2cc(=O)[nH]c3ccc(C(c4ccc(Cl)cc4)c4ccc(Cl)cc4)cc23)CC1`, the values for the EC50 in experiment [3] and in experiment [4] were 5 nM and greater than 10000 nM, respectively.
`OC(c1ccc(Cl)cc1)(c1ccc(Cl)cc1)c1ccc2nccc(/C=C/c3ccccc3)c2c1` had an EC50 in experiment [1] of 52.1 nM.
`Clc1ccc(C(c2ccc(Cl)cc2)c2ccc3nccc(/C=C/c4ccccc4)c3c2)cc1` returned an EC50 in experiment [1] of 4.1 nM.
On to `O=S(=O)(N1CCC(Nc2ccnc3c(NC4CCN(S(=O)(=O)C(F)(F)F)CC4)cc(C(c4ccc(Cl)cc4)c4ccc(Cl)cc4)cc23)CC1)C(F)(F)F`, for which the EC50 in experiment [3] and in experiment [4] was greater than 14000 nM throughout.
As to `O=c1cc(Nc2ccc(Cc3ccccc3)cc2)c2cc(C(c3ccc(Cl)cc3)c3ccc(Cl)cc3)ccc2[nH]1`, the values for the EC50 in experiment [3] and in experiment [4] were 15 nM and greater than 10000 nM, respectively.
For the compound `O=c1cc(Nc2ccc(F)c(Cl)c2)c2cc(C(c3ccc(Cl)cc3)c3ccc(Cl)cc3)ccc2[nH]1`, the EC50 in experiment [3] is 10 nM; in experiment [4], greater than 10000 nM.
With `COc1ccc(C(O)(c2ccc3nccc(/C=C/c4ccccc4)c3c2)c2nccs2)cc1` (centres undefined), in experiment [1], the EC50 is 1870 nM.
Compound `O=c1cc(/C=C/c2ccccc2)c2cc(C(c3ccc(Cl)cc3)c3nccs3)ccc2[nH]1` (centres undefined) showed an EC50 in experiment [1] of 34.6 nM.

As a reminder, the EC50 is the midpoint of the concentration-response curve.

These data come from ChEMBL document CHEMBL3886543, “Quinoline derivatives useful as CB-1 inverse agonists” (2016).
